This is an account of results in patent US20200054649A1, “SKELETAL MUSCLE HYPERTROPHY INDUCERS” (CYTOO, priority 2016, published 2020).

The test system of test [1] is Human primary myoblasts (HSMM) from healthy Donor 3, myotubes. As to the kind of experiment: MyoScreen hypertrophy assay on human primary myoblasts/myotubes, healthy Donor 3. The format is cell-based. The conditions noted are these: for activity at 10 µM / EC50: Homo sapiens. The procedure:
(§1) Healthy donor primary skeletal cells (Donor 1 and Donor 3) were Clonetics™ Human Skeletal Muscle Myoblasts (HSMM).
(§2) Hypertrophy and Atrophy Rescue assays were performed using an in vitro fully automated human myotube model called MyoScreen (Cytoo, France). This model relies on a tight control of the microenvironment that guides the differentiation of human primary myoblasts. Myotubes formed on MyoScreen™ micropatterns present a high level of maturation together with a highly standardized morphology.
(§3) Human primary myoblasts from donors 1, 3 and Z were seeded in MyoScreen™ micropatterned 96-well plates (Cytoo, France), let them adhere for 24 h in growth medium, then run the differentiation in a low horse serum medium for at least 5 days.
(§4) At Day0, MyoScreen™ plates (Cytoo, France) containing micropatterns were pre-filled with 200 μl/well of growth medium and stored in the incubator at 37° C. Human primary myoblasts were detached from the flasks, count, and seeded into the plates with 15 000 cells per well in 100 μl of growth medium.
(§5) At Day 1, the growth medium was changed for a differentiation medium, 300 μl/well (DMEM with 0.1% horse serum) in which myoblasts started differentiating and forming myotubes.
(§6) At Day 2, the differentiation medium was changed. Then candidate compounds were diluted with differentiation medium and transferred into the plate. The final concentration of DMSO should be not higher than 0.1%. At least 6 wells were treated with the vehicle as a basal control, and 6 wells were treated with IGF-1 at 100 ng/ml as positive hypertrophy control.
(§7) At Day 6, cells were fixed with formalin 5% for 30 min at room temperature, then permeabilized with Triton X-100 at 0.1% in PBS for 15 min, and blocked with PBS+BSA 1% for 20 minutes. Myotubes were incubated with first antibody against Troponin T in blocking buffer for 1 h30, washed three times with PBS, incubated with secondary antibody and Hoescht (1/10 000) for 1 h30, and washed three times with PBS.
(§8) Images were acquired at 10× magnification with an Operetta High Content Imaging System. Image processing and analysis were performed with dedicated algorithms developed on the Acapella High Content Imaging Software (Perkin Elmer) by CYTOO. Eleven fields per well were acquired.
(§9) First, segmentation of myotubes and nuclei were done using respectively the Troponin T staining intensity and the Hoechst staining. One to two myotubes per micropattern were usually identified (a myotube is a troponin T staining area that includes at least 2 nuclei). The threshold of segmentation was set-up in order to avoid detecting the background noise and eliminate aberrant small myotube structures. At the end of this first step, specific readouts were calculated in the whole well, like the nuclei count and the fusion index (percentage of nuclei included in troponin T staining). Usually around 50 to 60 myotubes were detected per well in a control condition.
(§10) Then, an image clean-up step was performed on the Troponin T images in order to remove myotubes that touch the border of the image. The final valid myotubes were used to extract myotube morphology parameters including the myotube width and area, and the number of nuclei per myotube.
(§11) Nuclei Count, Fusion Index, Mean myotube Area and Number of nuclei per myotube have been validated as relevant and sensitive readouts of myotube differentiation as well as atrophic and hypertrophic induction.
A primary screening was run to identify hypertrophy compounds that increase the myotube differentiation and size. Candidate compounds were tested at 10 μM in monoplicate on Donor 3 cells.
A retest was run, by cherry picking (same compound batch as primary screening): each hit was tested in the same conditions as in the Primary Screening (Donor 3, 10 μM) in six well replicates.
Dose response assays were performed on three donors (Healthy Donors 3 and 1, DMD Donor Z): 8 doses of candidate compounds between 33 μM and 0.015 μM, 2 well replicates per dose. […]

For test [2], the system named is Human primary myoblasts (HSMM) from healthy Donor 1, myotubes. As to the kind of experiment: MyoScreen hypertrophy assay, dose response, healthy Donor 1. The conditions noted are these: first dose response assay; for EC50: Homo sapiens, not defined precisely. The format is cell-based. The procedure:
as §1, §2, §3, §4, §5, §6, §7, §8, §9, §10, §11
(§12) Dose response assays were performed on three donors (Healthy Donors 3 and 1, DMD Donor Z): 8 doses of candidate compounds between 33 μM and 0.015 μM, 2 well replicates per dose.
(§13) Compounds of interest were tested several times in dose response, with triplicate of wells per dose. Results were normalized to the control condition (basal level), and plotted using GraphPadm Prism. The readout “nuclei count” allowed detecting any toxicity effect. The readouts “fusion index” and “myosin area” were used to determine the EC50 value using the GrapgPad Prism fitting solution. […]

For test [3], the system named is Human primary myoblasts from DMD (Duchenne muscular dystrophy) Donor Z, myotubes. As to the kind of experiment: MyoScreen hypertrophy assay, dose response, DMD Donor Z. Format: cell-based. The note with it: for activity: additional dose response assay, Donor Z, Mifepristone at 300 nM, IGF-1 positive control; for % Activity / EC50: first dose response assay; for % Activity / DMD myotube size and differentiation / EC50: Donor Z (DMD); for DMD myotube size and differentiation: dose response; for EC50: Homo sapiens, not defined precisely. On the procedure:
In addition, cells from a DMD (Duchenne muscular dystrophy) donor were sourced (Donor Z) and used to confirm primary hits.
as §2, §3, §4, §5, §6, §7, §8, §9, §10, §11, §12, §13

Test [4] concerns Myotubes from the healthy donor 3 atrophied with IL-1β, TNF-α or Myostatin. The test is described as follows: MyoScreen atrophy rescue assay (IL-1β, TNF-α, myostatin as atrophy inducers). The arrangement: key: +++: total rescue; ++: partial rescue; +: low rescue. Format: cell-based, human. The note with it: nestorone 1 μM, corticosterone 3 μM, mifepristone 1 μM; for atrophy rescue, TNF-alpha: atrophy inducer TNF-α 2 ng/mL; for atrophy rescue, Myostatin: atrophy inducer myostatin 150 ng/mL. On the procedure:
as §2, §3, §4, §5, §6
For Atrophy Rescue assay, one hour after candidate compound addition, atrophy inducers were added at the following final concentration: 150 ng/mL of myostatin, 25 ng/mL of […] and 2 ng/mL of TNF-α.
as §7, §8, §9, §10, §11
Atrophy Rescue assays were performed in the presence of atrophy inducers, i.e. TNF-α, IL-1β and Myostatin. Each compound was tested in triplicate of wells at 1 μM for nestorone, 3 μM for corticostestrone and 1 μM for mifepristone.
Myotubes from the healthy donor 3 were atrophied using different inducers: inflammation cytokines IL-1β and TNF-α and SMAD pathway activator Myostatin. The ability of each compound to block the atrophy induced by these different atrophy inducers was determined.

For test [5] the test system is unchanged. Described as above. Format: cell-based, human. The arrangement: key: +++: total rescue; ++: partial rescue; +: low rescue. The note with it: atrophy inducer IL-1β 25 ng/mL, nestorone 1 μM, corticosterone 3 μM, mifepristone 1 μM.
Where [6] appears, read: Donor 3, compounds at 10 μM, monoplicate, % Activity = myotube fusion index (compound)*100/fusion index (basal control), IGF-1 at 100 ng/ml, read-out: Primary screening (% Activity).
Where [7] appears, read: Donor 3, compounds at 10 μM, six well replicates, % of basal control fusion index, IGF-1 at 100 ng/ml, read-out: Retest (% Activity).
Where [8] appears, read: first dose response assay, Donor 3, not defined precisely.
[9] abbreviates: second dose response assay, Donor 3, lower concentrations.
[10] abbreviates: first dose response assay, Donor 3, 33 μM to 0.015 μM.

Like-named read-outs stand apart in the source and are kept apart here.

Turning to `C=C1C[C@H]2[C@@H]3C=C(C)C4=CC(=O)CC[C@]4(C)[C@H]3CC[C@]2(C)[C@@]1(OC(C)=O)C(C)=O` [Melengestrol acetate], the activity at 10 µM in test [1] (setting [6]) and in test [1] (setting [7]) was 140% in each case.
As for `CC#C[C@]1(O)CC[C@H]2[C@@H]3CCC4=CC(=O)CCC4=C3[C@@H](c3ccc(N(C)C)cc3)C[C@@]21C` [Mifepristone], the EC50 (usually the concentration needed to bring the measured effect to its halfway point) in test [1] (setting [8]) is roughly 50 nM; in test [1] (setting [9]), 100 nM; in test [2] it was roughly 5 nM. Also, the figures for the activity at 10 µM in test [1] (setting [6]) and in test [1] (setting [7]) were 140% and 173%, respectively. In addition, the figures for the “% Activity” value in test [1] (setting [10]), in test [1] (setting [9]) and in test [2] were 133%, 135% and 145%, respectively. The activity in test [3] came to 156%. The “atrophy rescue, TNF-alpha” value in test [4] was “++”. The “atrophy rescue, Myostatin” value in test [4] is reported as “+++”. Besides, in test [5], the “atrophy rescue, IL-1” value is on record as “+++”.
In the case of “IGF-1: IGF-1 at 100 ng/ml as positive hypertrophy control”, the “Primary screening (% Activity)” value in test [1] (Donor 3, compounds at 10 μM, monoplicate, % Activity = myotube fusion index (compound)*100/fusion index (basal control), IGF-1 at 100 ng/ml) came out at 210%. In addition, the “Retest (% Activity)” value in test [1] (Donor 3, compounds at 10 μM, six well replicates, % of basal control fusion index, IGF-1 at 100 ng/ml) came to 190%. Moreover, the “% Activity” value in test [1] (setting [10]) is recorded as 150%; in test [1] (setting [9]), 150%; in test [2], 150%; in test [3], 250%. For the same compound, in test [3], the activity is recorded as 200%. The “atrophy rescue, TNF-alpha” value in test [4] is “+++”. In addition, in test [4], the “atrophy rescue, Myostatin” value is “+++”. Besides, the “atrophy rescue, IL-1” value in test [5] was “+++”.
Regarding `C[C@]12C[C@H](O)[C@H]3[C@@H](CCC4=CC(=O)CC[C@@]43C)[C@@H]1CC[C@@H]2C(=O)CO` [Corticosterone], the EC50 in test [1] (setting [8]) is roughly 100 nM; in test [1] (setting [9]) it was 200 nM; in test [2], roughly 1000 nM; in test [3] it was roughly 500 nM. The figures for the activity at 10 µM in test [1] (setting [6]) and in test [1] (setting [7]) were 148% and 128%, respectively. For the same compound, the “% Activity” value is 114% in test [1] (setting [10]), 120% in test [1] (setting [9]), 134% in test [2] and 145% in test [3]. For the same compound, in test [3], the “DMD myotube size and differentiation” value is reported as “significant increase”. In addition, the “atrophy rescue, TNF-alpha” value in test [4] is “++”. Moreover, the “atrophy rescue, Myostatin” value in test [4] is on record as “+++”. Moreover, the “atrophy rescue, IL-1” value in test [5] was “++”.
Take `CC(=O)O[C@]1(C(C)=O)CC[C@H]2[C@@H]3C=C(C)C4=CC(=O)CC[C@]4(C)[C@H]3CC[C@@]21C` [Megestrol acetate]: the figures for the activity at 10 µM in test [1] (setting [6]) and in test [1] (setting [7]) were 133% and 125%, respectively.
In the case of `C=C1C[C@H]2[C@@H]3CCC4=CC(=O)CC[C@@H]4[C@H]3CC[C@]2(C)[C@@]1(OC(C)=O)C(C)=O` [Nestorone], the EC50 in test [1] (setting [8]) was roughly 100 nM; in test [1] (setting [9]), 200 nM; in test [2], roughly 100 nM; in test [3], roughly 100 nM. In addition, the activity at 10 µM in test [1] (setting [6]) was found to be 153%; in test [1] (setting [7]), 189%. Also, the “% Activity” value in test [1] (setting [10]) was determined as 115%; in test [1] (setting [9]) it was 133%; in test [2], 130%; in test [3], 181%. In addition, the “DMD myotube size and differentiation” value in test [3] is given as “significant increase”. For the same compound, the “atrophy rescue, TNF-alpha” value in test [4] is “+”. Further, the “atrophy rescue, Myostatin” value in test [4] is “++”. Further, the “atrophy rescue, IL-1” value in test [5] was “++”.
For `CC(=O)[C@H]1CC[C@H]2[C@@H]3CCC4=CC(=O)CC[C@]4(C)[C@H]3CC[C@]12C` [Progesterone], the activity at 10 µM came out at 137% in test [1] (setting [6]) and 114% in test [1] (setting [7]).
